Measured values published in ChEMBL document CHEMBL1153297, “Discovery of non-peptidergic MrgX1 and MrgX2 receptor agonists and exploration of an initial SAR using solid-phase synthesis” (Bioorg Med Chem Lett, 2009).
Activity calls are given as the source filed them. The calls are words filed in the database; no cut-off is given here. Bridge positions count the residues as written; N and C are the ends. Square brackets hold non-standard residues; d marks the D form. Peptide text beside a SMILES is read from it.

Assays:
[1] = target: T1, Mas-related G-protein coupled receptor member X2 (Homo sapiens) (UniProt Q96LB1); assay: Agonist activity at human MrgX2 receptor at 10 uM relative to cortistatin-14; type: functional
T1 sequence (whole entry): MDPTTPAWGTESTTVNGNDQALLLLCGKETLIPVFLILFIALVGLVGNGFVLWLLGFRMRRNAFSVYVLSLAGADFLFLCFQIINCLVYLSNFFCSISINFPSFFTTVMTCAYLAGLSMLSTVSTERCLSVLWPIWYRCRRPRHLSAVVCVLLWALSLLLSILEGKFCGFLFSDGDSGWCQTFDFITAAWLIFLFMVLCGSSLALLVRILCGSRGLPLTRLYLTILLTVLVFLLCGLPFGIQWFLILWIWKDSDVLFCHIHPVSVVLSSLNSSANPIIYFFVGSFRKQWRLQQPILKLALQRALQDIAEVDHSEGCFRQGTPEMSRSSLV

[2] = target: T2, Mas-related G-protein coupled receptor member X1 (Homo sapiens, UniProt Q96LB2); assay: Agonist activity at human MrgX1 receptor at 10 uM relative to BAM22; type: functional
T2 sequence (Q96LB2 whole entry): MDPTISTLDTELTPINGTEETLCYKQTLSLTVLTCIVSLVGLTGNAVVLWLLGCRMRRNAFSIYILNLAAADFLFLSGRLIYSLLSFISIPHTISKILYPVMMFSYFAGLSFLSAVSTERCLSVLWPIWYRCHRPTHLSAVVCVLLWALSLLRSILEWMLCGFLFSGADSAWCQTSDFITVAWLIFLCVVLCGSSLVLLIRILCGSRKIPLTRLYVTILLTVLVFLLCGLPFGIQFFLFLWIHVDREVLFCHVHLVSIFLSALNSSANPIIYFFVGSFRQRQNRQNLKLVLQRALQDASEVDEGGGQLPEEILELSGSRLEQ

[3] = target: T3, Mas-related G-protein coupled receptor member X2 (Homo sapiens, UniProt Q96LB1); assay: Agonist activity at human MrgX2 receptor; type: functional
T3 sequence (Q96LB1 whole entry): T1 sequence (whole entry)

Macaca mulatta [4] = species: Macaca mulatta; assay: Agonist activity at monkey MrgX1 receptor at 10 uM relative to BAM22; type: functional
[5] = Agonist activity at monkey MrgX2 receptor; type: functional, Macaca mulatta
Macaca mulatta [6] = species: Macaca mulatta; assay: Agonist activity at monkey MrgX2 receptor at 10 uM relative to cortistatin-14; type: functional
[7] = target: T2, Mas-related G-protein coupled receptor member X1; assay: Agonist activity at human MrgX1 receptor; type: functional
[8] = Agonist activity at monkey MrgX1 receptor; type: functional, Macaca mulatta
[9] = Metabolic stability in human liver microsome assessed as intrinsic clearance; type: ADME; settings: liver microsomes
[10] = target: T2, Mas-related G-protein coupled receptor member X1; assay: Agonist activity at MrgX1 receptor by calcium mobilization assay; type: functional

Row | Efficacy [1] | Efficacy [2] | EC50 [3] [nM] | Efficacy (Macaca mulatta [4]) | pEC50 [5] | Efficacy (Macaca mulatta [6]) | EC50 [7] [nM] | pEC50 [8] | microsomal CLint [9] [µL/min/mg] | Activity [10] | Structure (SMILES)
1 | 87% | inactive | 158 | – | – | – | – | – | – | – | CC(C)[C@H]1C(=O)Nc2ccc(NCc3ccccc3)cc2-c2nc3cc(C(=O)N(C)C4CCN(C)CC4)ccc3n21
2 | 110% | inactive | 316 | inactive | 6.4 | 50% | – | – | – | – | CC(C)[C@H]1C(=O)Nc2ccc(NC3CCCCCC3)cc2-c2nc3cc(C(=O)N4CCCN(C)CC4)ccc3n21
3 | inactive | 94% | – | 57% | – | inactive | 1260 | 6 | – | – | CC(C)[C@H]1C(=O)Nc2ccc(NCCN3CCCCC3)cc2-c2nc3cc(C(=O)N4CCN(c5ccc(F)cc5)CC4)ccc3n21
4 | 216% | inactive | 398 | inactive | 6.7 | 133% | – | – | 5 | Active | CC(C)[C@H]1C(=O)Nc2ccc(N3CCN(Cc4ccccc4)CC3)cc2-c2nc3cc(C(=O)N(C)C4CCN(C)CC4)ccc3n21
5 | 100% | inactive | – | inactive | 6.1 | 86% | – | – | – | – | C[C@@H](O)[C@@H]1NC(=O)[C@@H](CCCCN)NC(=O)[C@H](Cc2c[nH]c3ccccc23)NC(=O)[C@H](Cc2ccccc2)NC(=O)[C@H](Cc2ccccc2)NC(=O)[C@H](CC(N)=O)NC(=O)[C@H](CCCCN)NC(=O)[C@@H](NC(=O)[C@@H]2CCCN2)CSSC[C@@H](C(=O)N[C@@H](CCCCN)C(=O)O)NC(=O)[C@H](CO)NC(=O)[C@H](CO)NC(=O)[C@@H](Cc2ccccc2)NC1=O [CORTISTATIN-14] (H-PCKNFFW[dK]T[dF]SSCK-OH; disulfide 2-13)
6 | 28% | 133% | 2000 | 127% | – | inactive | 200 | 6.1 | – | – | CCC(C)[C@H]1C(=O)Nc2ccc(NCCN3CCCCC3)cc2-c2nc3cc(C(=O)NCc4cccc(C(F)(F)F)c4)ccc3n21 (stereo partly specified)
7 | 60% | 108% | – | 102% | – | inactive | 631 | 5.8 | – | – | CC(C)[C@H]1C(=O)Nc2ccc(NCCCN(C)C)cc2-c2nc3cc(C(=O)N4CCN(c5ccc(F)cc5)CC4)ccc3n21
8 | 103% | 147% | 631 | 157% | 5.4 | 85% | 63.1 | 6.1 | – | – | CCC(C)[C@H]1C(=O)Nc2ccc(NCCCN(C)C)cc2-c2nc3cc(C(=O)NCc4cccc(C(F)(F)F)c4)ccc3n21 (stereo partly specified)
9 | 41% | 129% | 1260 | 124% | 5.7 | 27% | 316 | 6.4 | – | – | CCC(C)[C@H]1C(=O)Nc2ccc(N3CCC(NC(C)=O)C3)cc2-c2nc3cc(C(=O)NCc4cccc(C(F)(F)F)c4)ccc3n21 (stereo partly specified)
10 | inactive | 98% | – | 89% | – | inactive | 2510 | 5.6 | – | – | CC(=O)NC1CCN(c2ccc3c(c2)-c2nc4cc(C(=O)N5CCN(c6ccc(F)cc6)CC5)ccc4n2[C@@H](C(C)C)C(=O)N3)C1 (stereo partly specified)
11 | inactive | 100% | – | 50% | – | inactive | 794 | 4.5 | – | – | CSCC[C@H](NC(=O)[C@H](Cc1ccccc1)NC(=O)CNC(=O)CNC(=O)[C@@H](N)Cc1ccc(O)cc1)C(=O)N[C@@H](CCCNC(=N)N)C(=O)N[C@@H](CCCNC(=N)N)C(=O)N[C@H](C(=O)NCC(=O)N[C@@H](CCCNC(=N)N)C(=O)N1CCC[C@H]1C(=O)N[C@@H](CCC(=O)O)C(=O)N[C@@H](Cc1c[nH]c2ccccc12)C(=O)N[C@@H](Cc1c[nH]c2ccccc12)C(=O)N[C@@H](CCSC)C(=O)N[C@@H](CC(=O)O)C(=O)N[C@@H](Cc1ccc(O)cc1)C(=O)N[C@@H](CCC(N)=O)C(=O)N[C@@H](CCCCN)C(=O)N[C@@H](CCCNC(=N)N)C(=O)N[C@@H](Cc1ccc(O)cc1)C(=O)NCC(=O)O)C(C)C
12 | – | – | 501 | – | – | – | – | – | – | – | C[C@@H](O)[C@@H]1NC(=O)[C@H](CCCCN)NC(=O)[C@H](Cc2c[nH]c3ccccc23)NC(=O)[C@H](Cc2ccccc2)NC(=O)[C@H](Cc2ccccc2)NC(=O)[C@H](CC(N)=O)NC(=O)[C@H](CCCCN)NC(=O)[C@@H](NC(=O)[C@@H]2CCCN2)CSSC[C@@H](C(=O)N[C@@H](CCCCN)C(=O)O)NC(=O)[C@H](CO)NC(=O)[C@H](CO)NC(=O)[C@H](Cc2ccccc2)NC1=O [CORTISTATIN-14] (H-PCKNFFWKTFSSCK-OH; disulfide 2-13)
13 | inactive | 135% | – | 126% | – | inactive | 316 | 6.1 | – | – | CCC(C)[C@H]1C(=O)Nc2ccc(NCCOCCOCCN)cc2-c2nc3cc(C(=O)NCc4cccc(C(F)(F)F)c4)ccc3n21 (stereo partly specified)
